According to patent US20260201008A1, “SECRETIN-DERIVED GLP1R SELECTIVE AGONISTS” (GUBRA A/S, priority 2023, published 2026):
Read-outs that look alike come from different tables or passages of the source. Numbered stars: 1 amine (or outer) side, 2 acyl side, 3 side chain; on linkers, the order of the positions; unused ones are H or OH. Square brackets hold non-standard residues; d marks the D form. Side chains are listed from the residue outwards. Peptide text beside a SMILES is read from it. * marks the point of attachment. C20 diacid = O=C(O)CCCCCCCCCCCCCCCCCCC(=O)*; γGlu = O=C(O)[C@H](CCC(=O)[*:2])N[*:1]; AEEA = NCCOCCOCC(=O)O; Aib = CC(C)(N)C(=O)O

Tests used:
[1] = Turbidity of crude library peptides (absorbance at 600 nm); format: physicochemical; conditions: Physical stability of peptides
Procedure, shortened: (§1)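 Crude peptides at 267 μM in 50 mM sodium acetate pH 4.0 or 50 mM sodium phosphate pH 7.0, pre-incubated 1-2 h at room temperature, then 4 μM final ThT added. Turbidity read first as A600. ThT fluorescence (ex 450/em 480 nm) read every 10 min for 72 h at 40° C, with 5 min shaking before each read; fibril formation = average emission.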

[2] = Fibril formation of crude library peptides (Thioflavin T); format: physicochemical; set-up: key: average ThT fluorescence emission at 480 nm (ex 450 nm), raw units; conditions: Physical stability of peptides
Procedure, shortened: as §1

GLP1R = GLP1R (Homo sapiens, UniProt P43220); assay: hGLP1R potency, cAMP accumulation in CHO-K1 cells stably overexpressing hGLP1R; format: cell-based; set-up: host or cells: CHO-K1; conditions: for EC50: cAMP accumulation, CHO-K1 cells overexpressing hGLP1R; for SCTR EC50/GLP1R EC50 ratio: selectivity for hGLP1R over hSCTR, cAMP accumulation in CHO-K1 cells; for Selectivity: SCTR EC50/GLP1R EC50 ratio
Procedure, shortened: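 CHO-K1 cells stably expressing hGLP1R (2000/well) in DPBS with 0.05% casein and 0.5 mM IBMX were stimulated 30 min at room temperature with graded compound doses; human GLP-1(7-36) served as positive control. cAMP was read by HTRF after 1 h; EC50 came from variable-slope sigmoid fits (purified peptides: 11-point 3-fold, n=2).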

SCTR = SCTR (Homo sapiens, UniProt P47872); assay: hSCTR potency, cAMP accumulation in CHO-K1 cells stably overexpressing hSCTR; format: cell-based; set-up: alternatively Euroscreen ES-712-AF; FAST-0161L; host or cells: CHO-K1; conditions: cAMP accumulation, CHO-K1 cells overexpressing hSCTR
Procedure, shortened: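 Cells plated at 2000/well in DPBS with 0.05% casein and 0.5 mM IBMX, stimulated 30 min at room temperature with graded compound doses; human secretin as positive control. cAMP read by TR-FRET after 1 h. Purified peptides tested at 11 3-fold dilutions, n=2; EC50 by variable-slope sigmoid fit.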

[3] = read-out: hGLP1R pEC50 (converted)
[4] = read-out: hSCTR pEC50 (converted)
[5] = read-out: pEC50 hGLPR1 (converted)
[6] = read-out: pEC50 hSCTR (converted)

GLP1R, sequence (P43220 24-463): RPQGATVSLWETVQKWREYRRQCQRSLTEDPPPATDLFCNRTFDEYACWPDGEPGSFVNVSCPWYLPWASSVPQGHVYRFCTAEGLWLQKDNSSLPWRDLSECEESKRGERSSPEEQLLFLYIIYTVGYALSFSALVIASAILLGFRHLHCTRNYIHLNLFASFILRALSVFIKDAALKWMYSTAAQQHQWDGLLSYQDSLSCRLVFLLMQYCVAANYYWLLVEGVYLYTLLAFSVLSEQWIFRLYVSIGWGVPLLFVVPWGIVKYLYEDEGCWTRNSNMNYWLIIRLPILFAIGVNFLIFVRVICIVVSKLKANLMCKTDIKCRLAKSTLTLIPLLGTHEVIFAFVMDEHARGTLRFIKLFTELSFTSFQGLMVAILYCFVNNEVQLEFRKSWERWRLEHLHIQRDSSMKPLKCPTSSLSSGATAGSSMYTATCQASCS
SCTR, sequence (P47872 23-440): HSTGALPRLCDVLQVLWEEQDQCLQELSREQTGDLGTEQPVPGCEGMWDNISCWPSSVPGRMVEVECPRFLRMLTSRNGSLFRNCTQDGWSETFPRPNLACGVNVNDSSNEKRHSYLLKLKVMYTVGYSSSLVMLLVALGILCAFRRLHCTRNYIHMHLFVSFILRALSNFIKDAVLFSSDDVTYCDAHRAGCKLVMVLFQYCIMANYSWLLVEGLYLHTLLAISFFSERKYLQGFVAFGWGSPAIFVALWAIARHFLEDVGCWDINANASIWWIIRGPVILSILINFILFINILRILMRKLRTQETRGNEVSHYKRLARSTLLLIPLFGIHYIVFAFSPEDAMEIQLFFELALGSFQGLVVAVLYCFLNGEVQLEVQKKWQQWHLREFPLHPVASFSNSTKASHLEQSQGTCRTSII

| SMILES | Turbidity (pH 7) [1] | Fibril formation [2] | EC50 (GLP1R; [3]) | SCTR EC50/GLP1R EC50 ratio (GLP1R) | EC50 (SCTR; [4]) | Selectivity (GLP1R) | EC50 (GLP1R; [5]) | EC50 (SCTR; [6]) |
| --- | --- | --- | --- | --- | --- | --- | --- | --- |
| CC(C)C[C@H](NC(=O)[C@H](Cc1ccccc1)NC(=O)[C@H](CCCNC(=N)N)NC(=O)[C@H](CCC(N)=O)NC(=O)CNC(=O)C(C)(C)NC(=O)[C@H](C)NC(=O)[C@H](CCC(=O)O)NC(=O)[C@H](CCC(=O)O)NC(=O)[C@H](CCCCNC(=O)COCCOCCNC(=O)COCCOCCNC(=O)CC[C@H](NC(=O)CCCCCCCCCCCCCCCCCCC(=O)O)C(=O)O)NC(=O)[C@H](CC(C)C)NC(=O)[C@H](Cc1ccc(O)cc1)NC(=O)[C@H](CO)NC(=O)[C@@H](NC(=O)[C@H](CC(=O)O)NC(=O)[C@H](CO)NC(=O)[C@@H](NC(=O)[C@H](Cc1ccccc1)NC(=O)[C@@H](NC(=O)CNC(=O)[C@H](CCC(=O)O)NC(=O)C(C)(C)NC(=O)[C@@H](N)Cc1c[nH]cn1)[C@@H](C)O)[C@@H](C)O)C(C)C)C(=O)N[C@@H](CCC(=O)O)C(=O)N[C@@H](Cc1c[nH]cn1)C(=O)N[C@@H](CC(C)C)C(=O)N[C@H](C(N)=O)C(C)C [compound 154] (H-H[Aib]EGTFTSDVSYLK([AEEA-AEEA-γGlu-C20 diacid])EEA[Aib]GQRFLEHLV-NH2) | 0.08 | 3107 | 0.0158 nM | 203892 | 3980 nM | – | – | – |
| CC(C)C[C@H](NC(=O)[C@H](Cc1ccccc1)NC(=O)[C@H](CCCNC(=N)N)NC(=O)[C@H](CCC(N)=O)NC(=O)[C@H](CCC(N)=O)NC(=O)[C@H](C)NC(=O)[C@H](C)NC(=O)C(C)(C)NC(=O)[C@H](CCC(=O)O)NC(=O)[C@H](CCCCNC(=O)COCCOCCNC(=O)COCCOCCNC(=O)CC[C@H](NC(=O)CCCCCCCCCCCCCCCCCCC(=O)O)C(=O)O)NC(=O)[C@H](CC(C)C)NC(=O)[C@H](CCC(=O)O)NC(=O)[C@H](CO)NC(=O)[C@@H](NC(=O)[C@H](CC(=O)O)NC(=O)[C@H](CO)NC(=O)[C@@H](NC(=O)[C@H](Cc1ccccc1)NC(=O)[C@@H](NC(=O)CNC(=O)[C@H](CCC(=O)O)NC(=O)C(C)(C)NC(=O)[C@@H](N)Cc1c[nH]cn1)[C@@H](C)O)[C@@H](C)O)C(C)C)C(=O)N[C@@H](CCC(=O)O)C(=O)N[C@@H](Cc1c[nH]cn1)C(=O)N[C@@H](CC(C)C)C(=O)N[C@H](C(N)=O)C(C)C [compound 5] (H-H[Aib]EGTFTSDVSELK([AEEA-AEEA-γGlu-C20 diacid])E[Aib]AAQQRFLEHLV-NH2) | 0.09 | 14563 | – | – | – | 6907 | 0.0126 nM | 79.4 nM |
| CC(C)C[C@H](NC(=O)[C@H](Cc1ccccc1)NC(=O)[C@H](CCCNC(=N)N)NC(=O)[C@H](CCC(N)=O)NC(=O)[C@H](CO)NC(=O)[C@H](C)NC(=O)[C@H](C)NC(=O)[C@H](Cc1ccccc1)NC(=O)[C@H](CCC(=O)O)NC(=O)[C@H](CCCCNC(=O)COCCOCCNC(=O)COCCOCCNC(=O)CC[C@H](NC(=O)CCCCCCCCCCCCCCCCCCC(=O)O)C(=O)O)NC(=O)[C@H](CC(C)C)NC(=O)[C@@H](NC(=O)[C@H](CO)NC(=O)[C@@H](NC(=O)[C@H](CC(=O)O)NC(=O)[C@H](CO)NC(=O)[C@@H](NC(=O)[C@H](Cc1ccccc1)NC(=O)[C@@H](NC(=O)CNC(=O)[C@H](CCC(=O)O)NC(=O)C(C)(C)NC(=O)[C@@H](N)Cc1c[nH]cn1)[C@@H](C)O)[C@@H](C)O)C(C)C)C(C)C)C(=O)N[C@@H](CCC(=O)O)C(=O)N[C@@H](Cc1c[nH]cn1)C(=O)N[C@@H](CC(C)C)C(=O)N[C@H](C(N)=O)C(C)C [compound 92] (H-H[Aib]EGTFTSDVSVLK([AEEA-AEEA-γGlu-C20 diacid])EFAASQRFLEHLV-NH2) | 0.14 | 260000 | 0.0794 nM | 20773 | 1580 nM | – | – | – |

Other lines, results leading:

| Turbidity (pH 7) [1] | Fibril formation [2] | EC50 (GLP1R; [3]) | SCTR EC50/GLP1R EC50 ratio (GLP1R) | EC50 (SCTR; [4]) | Selectivity (GLP1R) | EC50 (GLP1R; [5]) | EC50 (SCTR; [6]) | SMILES |
| --- | --- | --- | --- | --- | --- | --- | --- | --- |
| 0.55 | 22028 | 0.0794 nM | 5995 | 501 nM | – | – | – | CC[C@H](C)[C@H](NC(=O)[C@H](Cc1ccccc1)NC(=O)[C@H](CCCNC(=N)N)NC(=O)[C@H](CCC(N)=O)NC(=O)[C@H](CC(C)C)NC(=O)[C@H](C)NC(=O)[C@H](C)NC(=O)CNC(=O)[C@H](CCC(=O)O)NC(=O)[C@H](CC(C)C)NC(=O)[C@H](CC(C)C)NC(=O)C(C)(C)NC(=O)[C@H](CO)NC(=O)[C@@H](NC(=O)[C@H](CC(=O)O)NC(=O)[C@H](CO)NC(=O)[C@@H](NC(=O)[C@H](Cc1ccccc1)NC(=O)[C@@H](NC(=O)CNC(=O)[C@H](CCC(=O)O)NC(=O)C(C)(C)NC(=O)[C@@H](N)Cc1c[nH]cn1)[C@@H](C)O)[C@@H](C)O)C(C)C)C(=O)N[C@@H](CCC(N)=O)C(=O)N[C@@H](Cc1c[nH]c2ccccc12)C(=O)N[C@@H](CC(C)C)C(=O)N[C@H](C(N)=O)C(C)C [compound 179] (H-H[Aib]EGTFTSDVS[Aib]LLEGAALQRFIQWLV-NH2) |
| 0.08 | 16551 | – | – | – | 23147 | 0.0251 nM | 631 nM | CC(C)C[C@H](NC(=O)[C@H](Cc1ccccc1)NC(=O)[C@H](CCCNC(=N)N)NC(=O)[C@H](CCC(N)=O)NC(=O)C(C)(C)NC(=O)[C@H](C)NC(=O)[C@H](C)NC(=O)C(C)(C)NC(=O)[C@H](CCC(=O)O)NC(=O)[C@H](CCCCNC(=O)COCCOCCNC(=O)COCCOCCNC(=O)CC[C@H](NC(=O)CCCCCCCCCCCCCCCCCCC(=O)O)C(=O)O)NC(=O)[C@H](CC(C)C)NC(=O)[C@@H](NC(=O)[C@H](CO)NC(=O)[C@@H](NC(=O)[C@H](CC(=O)O)NC(=O)[C@H](CO)NC(=O)[C@@H](NC(=O)[C@H](Cc1ccccc1)NC(=O)[C@@H](NC(=O)CNC(=O)[C@H](CCC(=O)O)NC(=O)C(C)(C)NC(=O)[C@@H](N)Cc1c[nH]cn1)[C@@H](C)O)[C@@H](C)O)C(C)C)[C@@H](C)O)C(=O)N[C@@H](CCC(=O)O)C(=O)N[C@@H](Cc1c[nH]cn1)C(=O)N[C@@H](CC(C)C)C(=O)N[C@H](C(N)=O)C(C)C [compound 32] (H-H[Aib]EGTFTSDVSTLK([AEEA-AEEA-γGlu-C20 diacid])E[Aib]AA[Aib]QRFLEHLV-NH2) |
| 0.77 | 29072 | 0.0631 nM | 891 | 63.1 nM | – | – | – | CC[C@H](C)[C@H](NC(=O)[C@H](Cc1ccccc1)NC(=O)[C@H](CCCNC(=N)N)NC(=O)[C@H](CCC(N)=O)NC(=O)[C@H](CC(C)C)NC(=O)[C@H](C)NC(=O)[C@H](C)NC(=O)CNC(=O)[C@H](CCC(=O)O)NC(=O)[C@H](CC(C)C)NC(=O)[C@H](CC(C)C)NC(=O)[C@H](CCCNC(=N)N)NC(=O)[C@H](CO)NC(=O)[C@@H](NC(=O)[C@H](CC(=O)O)NC(=O)[C@H](CO)NC(=O)[C@@H](NC(=O)[C@H](Cc1ccccc1)NC(=O)[C@@H](NC(=O)CNC(=O)[C@H](CCC(=O)O)NC(=O)C(C)(C)NC(=O)[C@@H](N)Cc1c[nH]cn1)[C@@H](C)O)[C@@H](C)O)C(C)C)C(=O)N[C@@H](CCC(N)=O)C(=O)N[C@@H](Cc1c[nH]c2ccccc12)C(=O)N[C@@H](CC(C)C)C(=O)N[C@H](C(N)=O)C(C)C [compound 178] (H-H[Aib]EGTFTSDVSRLLEGAALQRFIQWLV-NH2) |
| 0.08 | 8172 | 0.2 nM | 5030 | 1000 nM | – | – | – | CC(C)C[C@H](NC(=O)[C@H](Cc1ccccc1)NC(=O)[C@H](CCCNC(=N)N)NC(=O)[C@H](CCC(N)=O)NC(=O)C(C)(C)NC(=O)[C@H](C)NC(=O)[C@H](C)NC(=O)[C@@H](NC(=O)[C@H](CCC(=O)O)NC(=O)[C@H](CCCCNC(=O)COCCOCCNC(=O)COCCOCCNC(=O)CC[C@H](NC(=O)CCCCCCCCCCCCCCCCCCC(=O)O)C(=O)O)NC(=O)[C@H](CC(C)C)NC(=O)[C@@H](NC(=O)[C@H](CO)NC(=O)[C@@H](NC(=O)[C@H](CC(=O)O)NC(=O)[C@H](CO)NC(=O)[C@@H](NC(=O)[C@H](Cc1ccccc1)NC(=O)[C@@H](NC(=O)CNC(=O)[C@H](CCC(=O)O)NC(=O)C(C)(C)NC(=O)[C@@H](N)Cc1c[nH]cn1)[C@@H](C)O)[C@@H](C)O)C(C)C)C(C)C)[C@@H](C)O)C(=O)N[C@@H](CCC(=O)O)C(=O)N[C@@H](Cc1c[nH]cn1)C(=O)N[C@@H](CC(C)C)C(=O)N[C@H](C(N)=O)C(C)C [compound 101] (H-H[Aib]EGTFTSDVSVLK([AEEA-AEEA-γGlu-C20 diacid])ETAA[Aib]QRFLEHLV-NH2) |
